Reference: the supplement of paper PMC10307832

Compound: C=CCn1c(=O)c2cnc(Nc3ccc(N4CCN(C)CC4)cc3)nc2n1-c1cccc(C(C)(C)O)n1 [Adavosertib]
Experiment: relative viability (nuclei count vs DMSO), 5 days (fraction); higher = more cells survive
How it was run: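 Viability was defined as treated-well nuclei divided by vehicle-well nuclei, with the median taken over replicate plates. Cells from lung cancer lines sat overnight at 37 °C in 1536-well plates, received five √10-spaced library-drug doses by pinning on vehicle-anchored plates, and grew 5 days without medium change before one-step fixation, permeabilisation and Hoechst staining, 4× imaging and MetaXpress nuclear counts. Only plates with control CV under 25% and at least one doubling were kept.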

EMC-BAC-2
relative viability (0.03162 µM): 1.02
relative viability (0.1 µM): 1.08
relative viability (0.3162 µM): 0.919
